PMC6768028, “Synthesis, SAR and in vitro therapeutic potentials of thiazolidine-2,4-diones” (Chemistry Central Journal, 2018)
≈ marks a conversion by molar mass, not a printed value. Like-named read-outs stand apart in the source and are kept apart here.

What was measured:
Bacillus subtilis = experiment: Antimicrobial activity, tube dilution method (MIC); format: cell-based; settings: 24 h
Experimental: (§1) The in vitro antimicrobial activity of synthesized compounds was done by tube dilution method against Gram-positive bacteria: Staphylococcus aureus, Bacillus subtilis, Gram-negative bacteria: Escherichia coli, Klebsiella pneumonia, Salmonella typhi and fungal: Candida albicans and Aspergillus niger strains using cefadroxil and fluconazole as standard. Dilutions of test and standard compounds were prepared in double strength nutrient broth for bacterial strains and Sabouraud dextrose broth for fungal strains.

Escherichia coli = experiment: Antimicrobial activity, tube dilution method (MIC); format: cell-based; settings: 24 h
Experimental: as §1

Klebsiella pneumonia = experiment: Antimicrobial activity, tube dilution method (MIC); format: cell-based; settings: Klebsiella pneumoniae, 24 h
Experimental: as §1

Salmonella typhi = experiment: Antimicrobial activity, tube dilution method (MIC); format: cell-based; settings: Salmonella enterica, TYPHI, 24 h, read-out: Minimum inhibitory concentration, S. typhi
Experimental: as §1

Staphylococcus aureus = experiment: Antimicrobial activity, tube dilution method (MIC); format: cell-based; settings: 24 h, read-out: Minimum inhibitory concentration, S. aureus, tube dilution, 37 ± 1 °C, 24 h
Experimental: as §1

Aspergillus niger = experiment: Antifungal activity, tube dilution method (MIC); format: cell-based; settings: 168 h
Experimental: as §1

Candida albicans = experiment: Antifungal activity, tube dilution method (MIC); format: cell-based; settings: 48 h
Experimental: as §1

[1] = system: α-amylase enzyme (diastase); experiment: Antidiabetic activity: α-amylase inhibitory activity using diastase, colorimetric method; format: biochemical; settings: for IC50 (antidiabetic activity, α-amylase): calculated via graph of % inhibition
Experimental: All the synthesized compounds were evaluated against α-amylase inhibitory activity by using diastase based on colorimetric method. 0.25 g of soluble potato starch was dissolved in 50 ml of 20 mM phosphate buffer by heating for 15 min. 1 mg diastase (amylase enzyme) was mixed in 100 ml of 20 mM phosphate buffer (pH 6.9) to obtain the enzyme solution. Different concentrations of all the synthesized derivatives were prepared by dissolving them in DMSO. […] 1 ml of enzyme solution was mixed with 1 ml of each synthesized derivatives and incubated for 10 min at 25 °C. Then 1 ml of this mixture was mixed with 1 ml of soluble potato starch solution in a tube and incubated for 10 min at 25 °C. Then tubes were closed after adding 1 ml of color reagent and placed into water bath for 15 min at 85 °C. The reaction mixture was removed from water bath after 15 min. After cooling, the reaction mixture was diluted with 9 ml of distilled water and the absorbance was taken at 540 nm in UV spectrophotometer. Blank solution was prepared by replacing the enzyme solution with buffer solution and absorbance was taken. Measurement of control was performed in identical manner by replacing the synthesized derivatives in 1 ml of DMSO.
Percentage inhibition of α-amylase enzyme was calculated by using following formula:1 %Inhibition=ABlank-ASample/ABlank×100

[2] = Antioxidant activity: free radical scavenging method by DPPH assay; settings: for % inhibition (DPPH), 25 μg/ml / % inhibition (DPPH), 50 μg/ml / % inhibition (DPPH), 75 μg/ml / % inhibition (DPPH), 100 μg/ml: 30 min, 517 nm; for IC50 (antioxidant activity, DPPH): calculated via graph of % inhibition
Experimental: The antioxidant activity of the newly synthesized compounds were evaluated spectrophotometrically using free radical scavenging method by DPPH (2,2-diphenyl-1-picrylhydrazyl) assay. The DPPH is a stable free radical with maximal absorption at 517 nm and is reduced to a corresponding hydrazine when it reacting with hydrogen donors. […] DPPH solution (3 μg/ml) was prepared in methanol and DPPH (in 1:1) solution was used for blank reference. Four dilutions of different concentrations (25, 50, 75 and 100 μg/ml) of each synthesized compound and standard (ascorbic acid) were prepared in the methanol and 1 ml of each concentration was added to 1 ml of DPPH solution. The solution mixture was shaken vigorously and kept in dark place for 30 min at room temperature and absorbance was measured by UV at 517 nm. Percentage inhibition of Free radical DPPH was calculated as follows:1 %Inhibition=ABlank-ASample/ABlank×100 where, ABlank: absorbance of the blank reaction, ASample: absorbance of the test compound.

[3] = read-out: Minimum inhibitory concentration, B. subtilis, tube dilution, 37 ± 1 °C, 24 h
[4] = tube dilution, 37 ± 1 °C, read-out: Minimum inhibitory concentration, K. pneumonia
[5] = read-out: Minimum inhibitory concentration, A. niger, tube dilution, 25 ± 1 °C, 7 days
[6] = read-out: Minimum inhibitory concentration, C. albicans, tube dilution, 37 ± 1 °C, 48 h
[7] = read-out: Minimum inhibitory concentration, E. coli, tube dilution, 37 ± 1 °C, 24 h
[8] = read-out: Minimum inhibitory concentration, K. pneumonia, tube dilution, 37 ± 1 °C, 24 h

Row | SMILES | MIC (Bacillus subtilis; [3]) | MIC (Klebsiella pneumonia; [4]) | MIC (Salmonella typhi) | MIC (Staphylococcus aureus) | MIC (Aspergillus niger; [5]) | MIC (Candida albicans; [6]) | % inhibition (α-amylase), 25 μg/ml [1] | % inhibition (α-amylase), 50 μg/ml [1] | % inhibition (α-amylase), 75 μg/ml [1] | % inhibition (α-amylase), 100 μg/ml [1] | IC50 (antidiabetic activity, α-amylase) [1] | % inhibition (DPPH), 25 μg/ml [2] | % inhibition (DPPH), 50 μg/ml [2] | % inhibition (DPPH), 75 μg/ml [2] | % inhibition (DPPH), 100 μg/ml [2] | IC50 (antioxidant activity, DPPH) [2] | MIC (Escherichia coli; [7]) | MIC (Klebsiella pneumonia; [8]) | further results
1 | O=C1NC(=O)C(=Cc2ccc(O)cc2)S1 [Compound 5, 5-(4-Hydroxybenzylidene)thiazolidine-2,4-dione] | 5.65 mM (≈ 1250 µg/mL) | 11.3 mM (≈ 2500 µg/mL) | 5.65 mM (≈ 1250 µg/mL) | 5.65 mM (≈ 1250 µg/mL) | 5.65 mM (≈ 1250 µg/mL) | 5.65 mM (≈ 1250 µg/mL) | 18.26% | 47.61% | 49.24% | 96.72% | 56.64 µg/mL (≈ 256 µM) | 35.79% | 39.78% | 62.02% | 85.47% | 31.10 µg/mL (≈ 141 µM) | – | – | MIC (Escherichia coli; tube dilution, 37 ± 1 °C, read-out: Minimum inhibitory concentration, E. coli): 11.3 mM (≈ 2500 µg/mL)
2 | CCOc1cc(C=C2SC(=O)NC2=O)ccc1O [Compound 11, 5-(4-Hydroxy-3-ethoxybenzylidene)thiazolidine-2,4-dione] | 9.4 mM (≈ 2490 µg/mL) | – | 4.7 mM (≈ 1250 µg/mL) | 4.7 mM (≈ 1250 µg/mL) | 4.7 mM (≈ 1250 µg/mL) | 4.7 mM (≈ 1250 µg/mL) | 18.49% | 47.87% | 59.74% | 89.71% | 52.69 µg/mL (≈ 199 µM) | 18.64% | 25.71% | 72.78% | 93.59% | 64.03 µg/mL (≈ 241 µM) | 4.7 mM (≈ 1250 µg/mL) | 4.7 mM (≈ 1250 µg/mL) | –
3 | COc1ccc(C=C2SC(=O)NC2=O)cc1 [Compound 12, 5-(4-methoxybenzylidene)thiazolidine-2,4-dione] | 10.6 mM (≈ 2490 µg/mL) | – | 5.31 mM (≈ 1250 µg/mL) | 10.6 mM (≈ 2490 µg/mL) | 5.31 mM (≈ 1250 µg/mL) | 5.31 mM (≈ 1250 µg/mL) | 27.77% | 53.23% | 62.27% | 79.43% | 27.63 µg/mL (≈ 117 µM) | 20.67% | 42.75% | 77.84% | 90.50% | 53.27 µg/mL (≈ 226 µM) | 5.31 mM (≈ 1250 µg/mL) | 10.6 mM (≈ 2490 µg/mL) | –
4 | O=C1NC(=O)C(=Cc2ccccc2Cl)S1 [Compound 13, 5-(2-Chlorobenzylidene)thiazolidine-2,4-dione] | 10.4 mM (≈ 2490 µg/mL) | – | 5.21 mM (≈ 1250 µg/mL) | 5.21 mM (≈ 1250 µg/mL) | 2.6 mM (≈ 623 µg/mL) | 5.21 mM (≈ 1250 µg/mL) | 25.74% | 43.89% | 56.76% | 92.72% | 48.45 µg/mL (≈ 202 µM) | 24.45% | 44.76% | 71.51% | 77.84% | 39.41 µg/mL (≈ 164 µM) | 5.21 mM (≈ 1250 µg/mL) | 10.4 mM (≈ 2490 µg/mL) | –
5 | O=C1NC(=O)C(=Cc2ccccc2O)S1 [Compound 17, 5-(2-Hydroxybenzylidene)thiazolidine-2,4-dione] | – | 11.3 mM (≈ 2500 µg/mL) | 5.65 mM (≈ 1250 µg/mL) | 5.65 mM (≈ 1250 µg/mL) | 5.65 mM (≈ 1250 µg/mL) | 5.65 mM (≈ 1250 µg/mL) | 23.67% | 48.56% | 65.46% | 93.17% | 48.48 µg/mL (≈ 219 µM) | 32.78% | 40.24% | 69.55% | 89.87% | 40.06 µg/mL (≈ 181 µM) | 5.65 mM (≈ 1250 µg/mL) | – | MIC (Bacillus subtilis; tube dilution, 37 ± 1 °C, read-out: Minimum inhibitory concentration, B. subtilis): 11.3 mM (≈ 2500 µg/mL)
6 | OC(Cn1cncn1)(Cn1cncn1)c1ccc(F)cc1F [Fluconazole, fluconazole, reference compound] | – | – | – | – | – | – | – | – | – | – | – | – | – | – | – | – | – | – | MIC (Aspergillus niger; tube dilution, 25 ± 1 °C, 7 days, read-out: Minimum inhibitory concentration, A. niger): 4.08 mM (≈ 1250 µg/mL); MIC (Candida albicans; tube dilution, 37 ± 1 °C, read-out: Minimum inhibitory concentration, C. albicans): 4.08 mM (≈ 1250 µg/mL)
